Activity calls are given as the source filed them.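 How the source made its calls: active means mean IC50 under 10 µM against uracil DNA glycosylase, used as a counter screen; inactive means the rest.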
target: Uracil-DNA glycosylase (Escherichia coli (strain K12)) (UniProt P12295); experiment: inhibitors of E. coli UDG, SAR follow-up, counter-screen for APOBEC3G deaminase inhibitor project, biochemical, UDG counterscreen (AID 602135); settings: FAM/TAMRA oligo fluorescence
Sequence (P12295 whole entry, looked up): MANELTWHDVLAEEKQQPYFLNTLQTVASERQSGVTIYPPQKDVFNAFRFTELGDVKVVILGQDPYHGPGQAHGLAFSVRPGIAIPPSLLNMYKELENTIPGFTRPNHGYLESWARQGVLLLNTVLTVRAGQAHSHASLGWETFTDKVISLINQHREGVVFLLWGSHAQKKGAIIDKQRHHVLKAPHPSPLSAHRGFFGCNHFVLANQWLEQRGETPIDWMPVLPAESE

Structure (SMILES)	IC50
O=C(NCc1ccc2c(c1)OCO2)c1cc2ncc(Br)cn2n1	> 99 µM (inactive)
COc1cc(C=Nn2c(-c3n[nH]c4c3CCC4)n[nH]c2=S)ccc1O	> 99 µM (inactive)
Cc1ccc(C=Nn2c(-c3ccco3)n[nH]c2=S)s1	> 99 µM (inactive)
COc1ccc(-c2nc(=S)[nH][nH]2)cc1	> 99 µM (inactive)
O=C(NCc1ccc2c(c1)OCO2)c1nn2cccnc2c1Cl	> 99 µM (inactive)
Cc1ccc[n+](CC(=O)Nc2cc(C(F)(F)F)ccc2N2CCOCC2)c1	> 99 µM (inactive)
S=c1[nH]nc(NCCc2ccccc2)s1	> 99 µM (inactive)
Cc1ccc(-c2csc3n[nH]c(=S)n23)cc1	> 99 µM (inactive)
CC(C)(C)NC(=O)CSc1nc2ccc(NC(=O)CSc3nnc(N)s3)cc2s1	> 99 µM (inactive)
C[n+]1cccc(C(=O)Nc2ccccc2)c1	> 99 µM (inactive)
Cc1ccc(C)n1Cc1ccc(C(=O)O)cc1	> 99 µM (inactive)
CC1(C)Oc2ccc3ccc(=O)oc3c2/C(=C/NCCO)C1=O	> 99 µM (inactive)
CCOC(=O)c1ccc2c(c1)N(C)C(=O)c1ccccc1S2	> 99 µM (inactive)
CCCCn1c(=O)c2ccccc2n2c(=S)[nH]nc12	> 99 µM (inactive)
CCn1ncc(-c2ccnc3cc(C(=O)O)nn23)c1C	> 99 µM (inactive)
S=c1[nH]nc2c3c4c(sc3ncn12)CCCC4	> 99 µM (inactive)
O=C1NC(=S)NC(=O)C1=Cc1ccc2c(c1)CCN2CCCCl	> 99 µM (inactive)
Nn1c(-c2cccc(Br)c2)n[nH]c1=S	> 99 µM (inactive)
Cn1nc([N+](=O)[O-])nc1S(C)(=O)=O	> 99 µM (inactive)
CCC(=O)Nc1cccc(-c2nnc(SCC(=O)NCc3ccco3)n2C)c1	> 99 µM (inactive)
CC(C(=O)O)N1C(=O)/C(=C/C=C/c2ccco2)SC1=S (stereo not given)	> 99 µM (inactive)
Cc1ccc2[nH]cc(/C=C/c3cc[n+](C)cc3)c2c1	> 99 µM (inactive)
CC(=O)c1ccc2c(c1)C1C=CCC1C(C(=O)O)N2 (stereo not given)	> 99 µM (inactive)
Cc1ccc2c(c1C)NC(C(=O)O)C1CC=CC21 (stereo not given)	> 99 µM (inactive)
CCCCCn1c(=O)c2ccccc2n2c(=S)[nH]nc12	> 99 µM (inactive)

From PubChem BioAssay AID602135 (Sanford-Burnham Center for Chemical Genomics, 2011)
